Source: patent US9920061B2, “Imidazo[1,5-A]pyrimidinyl carboxamide compounds and their use in the treatment of medical disorders” (Lysosomal Therapeutics Inc., priority 2016, dated 2018)
≈ marks a conversion by molar mass, not a printed value.

Experiments:
[1] = molecular target: T1, glucocerebrosidase (Gcase) (Homo sapiens, UniProt P04062); assay: Glucocerebrosidase (Gcase) activation assay, 4-methylumbelliferyl-beta-D-glucopyranoside substrate, with saposin C; format: biochemical; details: for activation at 0.1 µM: 0.1 μM test compound, read-out: Percent Gcase Activation 0.1 μM Test Compound; for activation at 1 µM: 1 μM test compound, read-out: Percent Gcase Activation 1 μM Test Compound
T1 sequence (P04062 40-536): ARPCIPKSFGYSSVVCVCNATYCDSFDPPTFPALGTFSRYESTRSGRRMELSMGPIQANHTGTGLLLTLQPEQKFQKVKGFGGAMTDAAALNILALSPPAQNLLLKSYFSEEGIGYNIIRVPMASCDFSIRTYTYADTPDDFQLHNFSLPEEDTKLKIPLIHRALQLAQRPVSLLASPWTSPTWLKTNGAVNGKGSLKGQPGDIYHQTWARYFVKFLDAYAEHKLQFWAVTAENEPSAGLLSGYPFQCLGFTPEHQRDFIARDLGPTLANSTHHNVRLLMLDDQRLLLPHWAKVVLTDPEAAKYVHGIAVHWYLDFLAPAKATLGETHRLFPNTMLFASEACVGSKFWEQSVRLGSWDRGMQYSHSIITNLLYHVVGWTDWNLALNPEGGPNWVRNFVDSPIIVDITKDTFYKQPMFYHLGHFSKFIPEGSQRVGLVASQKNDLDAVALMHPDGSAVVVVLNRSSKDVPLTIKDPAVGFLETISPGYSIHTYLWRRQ
Summary of the method: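 Compounds tested at 1.0 and 0.1 μM, then in 8-point 3-fold curves, were pre-incubated 30 min at room temperature with 10 nM GCase plus 100 nM saposin C in PS/triton micelles, pH 4.7. Reaction with substrate (2 mM in micelles before mixing) ran 15 min; stopped at pH 12.5, read at ex 365/em 440 nm.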

[2] = Compound solubility in water; format: physicochemical

activation at 0.1 µM [1] [%]	activation at 1 µM [1] [%]	solubility [2] [µg/mL]	Structure (SMILES)
> 20	> 60	1.7 (≈ 4.82 µM)	CCc1cc(-c2cccc(F)c2)nc2c(C(=O)N[C@@H](C)C3CC3)ncn12 [III-113]
10 to 20	> 60	26 (≈ 71.5 µM)	Cc1cc(N2CCCC(F)(F)C2)nc2c(C(=O)N[C@@H](C)C3CC3)ncn12 [III-114]
< 10	< 30	20.5 (≈ 56.4 µM)	Cc1cc(N2CCC(F)(F)CC2)nc2c(C(=O)N[C@@H](C)C3CC3)ncn12 [III-115]
10 to 20	> 60	0.6 (≈ 1.55 µM)	COCc1cc(-c2cc(F)cc(F)c2)nc2c(C(=O)N[C@@H](C)C3CC3)ncn12 [III-116]
< 10	< 30	20.5 (≈ 63.2 µM)	Cc1cc(-c2ncc[nH]2)nc2c(C(=O)NC(C)(C)C3CC3)ncn12 [III-117]
< 10	30 to 60	9.7 (≈ 25.7 µM)	Cc1cc(N2CCC(F)(F)CC2)nc2c(C(=O)NC(C)(C)C3CC3)ncn12 [III-118]
< 10	30 to 60	8.8 (≈ 24.8 µM)	Cc1cc(Oc2cccc(F)c2)nc2c(C(=O)N[C@@H](C)C3CC3)ncn12 [III-119]
< 10	30 to 60	27.7 (≈ 78.2 µM)	Cc1cc(Oc2ccccc2F)nc2c(C(=O)N[C@@H](C)C3CC3)ncn12 [III-120]
< 10	< 30	34.9 (≈ 103 µM)	Cc1cc(Oc2ccccn2)nc2c(C(=O)N[C@@H](C)C3CC3)ncn12 [III-121]
< 10	< 30	32.8 (≈ 97.2 µM)	Cc1cc(Oc2cccnc2)nc2c(C(=O)N[C@@H](C)C3CC3)ncn12 [III-122]
< 10	< 30	29.6 (≈ 87.7 µM)	Cc1cc(Oc2ccncc2)nc2c(C(=O)N[C@@H](C)C3CC3)ncn12 [III-123]
> 20	> 60	3.4 (≈ 10.4 µM)	Cc1cc(-c2cccc(F)c2)nc2c(C(=O)NC(C)(C)C)ncn12 [III-124]
> 20	> 60	0.2 (≈ 0.581 µM)	Cc1cc(-c2cc(F)cc(F)c2)nc2c(C(=O)NC(C)(C)C)ncn12 [III-125]
> 20	> 60	0.1 (≈ 0.281 µM)	COc1cc(F)cc(-c2cc(C)n3cnc(C(=O)NC(C)(C)C)c3n2)c1 [III-126]
> 20	> 60	1.4 (≈ 4.14 µM)	COc1cccc(-c2cc(C)n3cnc(C(=O)NC(C)(C)C)c3n2)c1 [III-127]
< 10	< 30	34.1 (≈ 107 µM)	COCCOc1cc(C)n2cnc(C(=O)N[C@@H](C)C3CC3)c2n1 [III-128]
< 10	> 60	6.1 (≈ 16.9 µM)	Cc1cc(-c2ccc3ncoc3c2)nc2c(C(=O)N[C@@H](C)C3CC3)ncn12 [III-129]
> 20	> 60	7.7 (≈ 21.3 µM)	Cc1cc(-c2ccc3ocnc3c2)nc2c(C(=O)N[C@@H](C)C3CC3)ncn12 [III-130]
< 10	< 30	2.8 (≈ 7.77 µM)	Cc1cc(-c2ccn3ccnc3c2)nc2c(C(=O)N[C@@H](C)C3CC3)ncn12 [III-131]
10 to 20	> 60	18.6 (≈ 57 µM)	CC[C@H](C)NC(=O)c1ncn2c(C)cc(-c3cccc(F)c3)nc12 [III-132]
> 20	> 60	1.5 (≈ 4.12 µM)	Cc1cc(-c2cccc(F)c2)nc2c(C(=O)NC(C3CC3)C3CC3)ncn12 [III-133]
> 20	> 60	2.4 (≈ 7 µM)	Cc1cc(-c2cccc(Cl)c2)nc2c(C(=O)NC(C)(C)C)ncn12 [III-134]
> 20	> 60	0.3 (≈ 0.85 µM)	C#CC(C)(C)NC(=O)c1ncn2c(C)cc(-c3cccc(Cl)c3)nc12 [III-135]
> 20	> 60	17.2 (≈ 43.9 µM)	CCc1cc(N2CCCC(F)(F)C2)nc2c(C(=O)NC(C)(C)C3CC3)ncn12 [III-136]
10 to 20	> 60	12 (≈ 27.8 µM)	CCc1cc(N2CCCC(F)(F)C2)nc2c(C(=O)NC(C3CC3)C(F)(F)F)ncn12 (stereo not drawn) [III-137]

activation at 0.1 µM [1] [%]	activation at 1 µM [1] [%]	solubility [2] [µg/mL]	Structure (SMILES)
> 20	> 60	17.2 (≈ 41.2 µM)	Cc1cc(N2CCCC(F)(F)C2)nc2c(C(=O)NC(C3CC3)C(F)(F)F)ncn12 (stereo not drawn) [III-138]
> 20	> 60	1.8 (≈ 4.46 µM)	Cc1cc(N2CCC(F)(F)C2)nc2c(C(=O)NC(C3CC3)C(F)(F)F)ncn12 (stereo not drawn) [III-139]
< 10	< 30	0.8 (≈ 2.13 µM)	Cc1cc(-c2nc(Cl)cs2)nc2c(C(=O)NC(C)(C)C3CC3)ncn12 [III-140]
> 20	> 60	18 (≈ 47.2 µM)	Cc1cc(-c2ccns2)nc2c(C(=O)NC(C3CC3)C(F)(F)F)ncn12 (stereo not drawn) [III-141]
< 10	< 30	14.9 (≈ 41.5 µM)	Cc1cc(-n2ccc(Cl)n2)nc2c(C(=O)NC(C)(C)C3CC3)ncn12 [III-142]
10 to 20	> 60	4.2 (≈ 10.5 µM)	Cc1cc(-n2ccc(Cl)n2)nc2c(C(=O)NC(C3CC3)C(F)(F)F)ncn12 (stereo not drawn) [III-143]
< 10	30 to 60	20.5 (≈ 50.1 µM)	Cc1cc(N2CCC(C)(C)C2=O)nc2c(C(=O)NC(C3CC3)C(F)(F)F)ncn12 (stereo not drawn) [III-144]
> 20	> 60	1.6 (≈ 3.85 µM)	Cc1cc(-c2cccc3ocnc23)nc2c(C(=O)NC(C3CC3)C(F)(F)F)ncn12 (stereo not drawn) [III-145]
> 20	> 60	0.9 (≈ 2.46 µM)	COc1cccc(-c2cc(C)n3cnc(C(=O)NC(C)(C)C4CC4)c3n2)n1 [III-146]
> 20	> 60	0.5 (≈ 1.23 µM)	COc1cccc(-c2cc(C)n3cnc(C(=O)NC(C4CC4)C(F)(F)F)c3n2)n1 (stereo not drawn) [III-147]
< 10	30 to 60	4.9 (≈ 14 µM)	C#CC(C)(C)NC(=O)c1ncn2c(C)cc(-c3cccc(OC)n3)nc12 [III-148]
> 20	> 60	0.7 (≈ 1.67 µM)	CCc1cc(-c2cccc(OC)n2)nc2c(C(=O)NC(C3CC3)C(F)(F)F)ncn12 (stereo not drawn) [III-149]
10 to 20	> 60	10.1 (≈ 29.2 µM)	Cc1cc(-c2cccc(C#N)c2)nc2c(C(=O)N[C@@H](C)C3CC3)ncn12 [III-150]
> 20	> 60	4.3 (≈ 12 µM)	Cc1cc(-c2cccc(C#N)c2)nc2c(C(=O)NC(C)(C)C3CC3)ncn12 [III-151]
> 20	> 60	3.8 (≈ 9.51 µM)	Cc1cc(-c2cccc(C#N)c2)nc2c(C(=O)NC(C3CC3)C(F)(F)F)ncn12 (stereo not drawn) [III-152]
> 20	> 60	0.5 (≈ 1.25 µM)	Cc1cc(-c2ccccc2C#N)nc2c(C(=O)NC(C3CC3)C(F)(F)F)ncn12 (stereo not drawn) [III-153]
< 10	< 30	28.1 (≈ 67.3 µM)	Cc1cc(-c2ccccc2C(N)=O)nc2c(C(=O)NC(C3CC3)C(F)(F)F)ncn12 (stereo not drawn) [III-154]
< 10	30 to 60	1.7 (≈ 4.65 µM)	CCOc1cccc(-c2cc(C)n3cnc(C(=O)N[C@@H](C)C4CC4)c3n2)n1 [III-155]
< 10	30 to 60	0.8 (≈ 2.11 µM)	CCOc1cccc(-c2cc(C)n3cnc(C(=O)NC(C)(C)C4CC4)c3n2)n1 [III-156]
> 20	> 60	2.1 (≈ 6.03 µM)	C#CC(C)(C)NC(=O)c1ncn2c(C)cc(-c3cccc(OC)c3)nc12 [III-157]
< 10	30 to 60	21.9 (≈ 54.2 µM)	Cc1cc(OC2CC(F)(F)C2)nc2c(C(=O)NC(C3CC3)C(F)(F)F)ncn12 (stereo not drawn) [III-158]
> 20	> 60	8.9 (≈ 21.4 µM)	Cc1cc(-c2cccc3ncoc23)nc2c(C(=O)NC(C3CC3)C(F)(F)F)ncn12 (stereo not drawn) [III-160]
> 20	> 60	1.8 (≈ 4.94 µM)	CCc1cc(-c2cccc(OC)c2)nc2c(C(=O)N[C@@H](C)C3CC3)ncn12 [III-161]
> 20	> 60	0.2 (≈ 0.542 µM)	Cc1cc(-c2cccc(Cl)c2)nc2c(C(=O)NC(C)(C)C3CC3)ncn12 [III-162]
> 20	> 60	0.4 (≈ 1.02 µM)	Cc1cc(-c2cccc(F)c2)nc2c(C(=O)NC(C3CC3)C(F)(F)F)ncn12 (stereo not drawn) [III-163]
